In patent publication US11292788B2, “IL-17 and IFN-gamma inhibition for the treatment of autoimmune diseases and chronic inflammation” (Immunic AG, priority 2017, dated 2022):
Read-outs that look alike come from different tables or passages of the source.

Tests used:
Assay type in all cases: cell-based
INF-γ = assay: Cytokine assay: INF-γ production by human PBMC stimulated with PHA; conditions: IC50 class, read-out: IFN-gamma Inhib.
Method: (§1) Cytokine Assay: Analysis of Proliferation of and Cytokine Production by Human PBMC Stimulated with PHA
(§2) Peripheral blood mononuclear cells (PBMC) from healthy human donors were purified using Accuspin™ System-Histopaque-1077 (Sigma) according to the protocol recommended by the manufacturer. Purified PBMC were then washed twice with phosphate-buffered saline (PBS) and resuspended in RPMI1640 culture medium supplemented with 10% dialyzed heat inactivated fetal calf serum, 1.5 mM L-glutamine, 100 U penicillin/ml, and […] (all from PAN Biotech, Aidenbach, Germany). For stimulation, PBMC were seeded at 1×10^5 cells/well, activated with 2 μg/ml phytohaemagglutinin (PHA, Sigma) and incubated with the test compounds for 48 hours. IL-17A, IL-17F and INF-γ were then determined in the culture supernatant using a Luminex BioPlex system, following the manufacturer's instructions (BioRad, Munich, Germany). For screening, compounds were used at 10, 1, 0.1 and 0.01 μM. To determine the IC50, compounds were titrated semilogarithmically.
(§3) Cytokines were determined in the aforementioned culture supernatant using the following methods: IL-17A was measured using the human homodimer IL-17A ELISA Ready Set Go Kit from eBioscience (Frankfurt, Germany); IL-17F using the human IL-17F ELI-Pair from Hölzel DiagnosticaGmBH (Köln, Germany); and IFN-γ using the OptEIA human IFN-g ELISA from BD Bioscience (Heidelberg, Germany), all following the manufacturer's instructions.

IL-17A = assay: Cytokine assay: IL-17A production by human PBMC stimulated with PHA; conditions: IC50 class, read-out: IL-17A Inhib.
Method: as §1, §2, §3

IL-17F = assay: Cytokine assay: IL-17F production by human PBMC stimulated with PHA; conditions: IC50 class, read-out: IL-17F Inhib.
Method: as §1, §2, §3

Structure (SMILES) | IC50 (INF-γ; Homo sapiens, PBMC) | IC50 (IL-17A; Homo sapiens, PBMC) | IC50 (IL-17F; Homo sapiens, PBMC) | IC50 (IL-17A) | IC50 (INF-γ) | IC50 (IL-17F)
CCOC(=O)c1c(-c2c(F)cccc2Cl)noc1-c1cnn([C@H]2C[C@@](C)(O)C2)c1C(F)(F)F [Example 11, ethyl 3-(2-chloro-6-fluorophenyl)-5-[1-(3-hydroxy-3-methylcyclobutyl)-5-(trifluoromethyl)-1H-pyrazol-4-yl]-1,2-oxazole-4-carboxylate] |  |  |  | < 50 nM |  | 
COC(=O)c1c(-c2ccccc2Cl)noc1-c1cnn([C@H]2C[C@](C)(O)C2)c1C [Example 17, methyl 3-(2-chlorophenyl)-5-(1-(3-hydroxy-3-methylcyclobutyl)-5-methyl-1H-pyrazol-4-yl)isoxazole-4-carboxylate] |  |  |  | 500 to 5000 nM | 500 to 5000 nM | 500 to 5000 nM
COC(=O)c1c(-c2cccnc2OC)noc1-c1cnn(C[C@@H](C)O)c1C(F)(F)F [Example 21, methyl (R)-5-(1-(2-hydroxypropyl)-5-(trifluoromethyl)-1H-pyrazol-4-yl)-3-(2-methoxypyridin-3-yl)isoxazole-4-carboxylate] | 500 to 5000 nM | 500 to 5000 nM | 500 to 5000 nM |  |  | 
COC(=O)c1c(-c2ccccc2Cl)noc1-c1cnn(C[C@H](C)O)c1C(F)(F)F [Example 22, methyl (S)-3-(2-chlorophenyl)-5-(1-(2-hydroxypropyl)-5-(trifluoromethyl)-1H-pyrazol-4-yl)isoxazole-4-carboxylate] | < 50 nM | 50 to 500 nM | 50 to 500 nM |  |  | 
COC(=O)c1c(-c2ccccc2Cl)noc1-c1cnn(C[C@H](C)O)c1C [Example 24, methyl (S)-3-(2-chlorophenyl)-5-(1-(2-hydroxypropyl)-5-methyl-1H-pyrazol-4-yl)isoxazole-4-carboxylate] | 50 to 500 nM | 500 to 5000 nM | 50 to 500 nM |  |  | 
COC(=O)c1c(-c2c(F)cccc2Cl)noc1-c1cnn(C2CC(O)C2)c1C(F)(F)F (stereo not drawn) [Example 28, methyl 3-(2-chloro-6-fluorophenyl)-5-(1-(3-hydroxycyclobutyl)-5-(trifluoromethyl)-1H-pyrazol-4-yl)isoxazole-4-carboxylate] | 500 to 5000 nM | 500 to 5000 nM | 500 to 5000 nM |  |  | 
COC[C@]1(O)C[C@@H](n2ncc(-c3onc(-c4ccccc4Cl)c3C(=O)OC)c2C(F)(F)F)C1 [Example 29, methyl 3-(2-chlorophenyl)-5-(1-(3-hydroxy-3-(methoxymethyl)cyclobutyl)-5-(trifluoromethyl)-1H-pyrazol-4-yl)isoxazole-4-carboxylate] | 50 to 500 nM | 500 to 5000 nM | 500 to 5000 nM |  |  | 
Cc1nnc(-c2c(-c3c(F)cccc3Cl)noc2-c2cnn(CC(C)(C)O)c2C(F)(F)F)o1 [Example 30, 1-(4-(3-(2-chloro-6-fluorophenyl)-4-(5-methyl-1,3,4-oxadiazol-2-yl)isoxazol-5-yl)-5-(trifluoromethyl)-1H-pyrazol-1-yl)-2-methylpropan-2-ol] | 500 to 5000 nM | 50 to 500 nM | 500 to 5000 nM |  |  | 
CC(=O)c1c(-c2c(F)cccc2Cl)noc1-c1cnn(CC(C)(C)O)c1C(F)(F)F [Example 34, 1-(3-(2-chloro-6-fluorophenyl)-5-(1-(2-hydroxy-2-methylpropyl)-5-(trifluoromethyl)-1H-pyrazol-4-yl)-1,2-oxazol-4-yl)ethanone] | 500 to 5000 nM | 500 to 5000 nM | 500 to 5000 nM |  |  | 
CC(C)(O)Cn1ncc(-c2onc(-c3c(F)cccc3Cl)c2C(=O)CC2CCC2)c1C(F)(F)F [Example 36, 1-[3-(2-chloro-6-fluorophenyl)-5-[1-(2-hydroxy-2-methylpropyl)-5-(trifluoromethyl)-1H-pyrazol-4-yl]-1,2-oxazol-4-yl]-2-cyclobutylethan-1-one] | 50 to 500 nM | 500 to 5000 nM | 50 to 500 nM |  |  | 
C=CCCC(=O)c1c(-c2c(F)cccc2Cl)noc1-c1cnn(CC(C)(C)O)c1C(F)(F)F [Example 37, 1-[3-(2-chloro-6-fluorophenyl)-5-[1-(2-hydroxy-2-methylpropyl)-5-(trifluoromethyl)-1H-pyrazol-4-yl]-1,2-oxazol-4-yl]pent-4-en-1-one] | 50 to 500 nM | 50 to 500 nM | 50 to 500 nM |  |  | 

Now from value to compound:

IC50 (INF-γ; Homo sapiens, PBMC) | IC50 (IL-17A; Homo sapiens, PBMC) | IC50 (IL-17F; Homo sapiens, PBMC) | IC50 (IL-17A) | IC50 (INF-γ) | IC50 (IL-17F) | Structure (SMILES)
≥ 5000 nM | 500 to 5000 nM | ≥ 5000 nM |  |  |  | C=CCCC(O)(CC1CC1)c1c(-c2c(F)cccc2Cl)noc1-c1cnn(CC(C)(C)O)c1C(F)(F)F (racemic) [Example 38, 2-[3-(2-chloro-6-fluorophenyl)-5-[1-(2-hydroxy-2-methylpropyl)-5-(trifluoromethyl)-1H-pyrazol-4-yl]-1,2-oxazol-4-yl]-1-cyclopropylhex-5-en-2-ol]
500 to 5000 nM | 500 to 5000 nM | ≥ 5000 nM |  |  |  | COCC(=O)c1c(-c2c(F)cccc2Cl)noc1-c1cnn(CC(C)(C)O)c1C(F)(F)F [Example 39, 1-[3-(2-chloro-6-fluorophenyl)-5-[1-(2-hydroxy-2-methylpropyl)-5-(trifluoromethyl)-1H-pyrazol-4-yl]-1,2-oxazol-4-yl]-2-methoxyethan-1-one]
500 to 5000 nM | 500 to 5000 nM | 500 to 5000 nM |  |  |  | COCC(=O)c1c(-c2c(F)cccc2Cl)noc1-c1cnn(C[C@@H](C)O)c1C(F)(F)F [Example 40, 1-[3-(2-chloro-6-fluorophenyl)-5-{1-[(2R)-2-hydroxypropyl]-5-(trifluoromethyl)-1H-pyrazol-4-yl}-1,2-oxazol-4-yl]-2-methoxyethan-1-one]
≥ 5000 nM | ≥ 5000 nM | ≥ 5000 nM |  |  |  | CC(C)(O)Cn1ncc(-c2onc(-c3c(F)cccc3Cl)c2C(=O)NC2CCCC2)c1C(F)(F)F [Example 41, 3-(2-chloro-6-fluorophenyl)-N-cyclopentyl-5-(1-(2-hydroxy-2-methylpropyl)-5-(trifluoromethyl)-1H-pyrazol-4-yl)isoxazole-4-carboxamide]
≥ 5000 nM | ≥ 5000 nM | ≥ 5000 nM |  |  |  | CC(C)(O)Cn1ncc(-c2onc(-c3c(F)cccc3Cl)c2C(=O)NC2CC2)c1C(F)(F)F [Example 42, 3-(2-chloro-6-fluorophenyl)-N-cyclopropyl-5-(1-(2-hydroxy-2-methylpropyl)-5-(trifluoromethyl)-1H-pyrazol-4-yl)isoxazole-4-carboxamide]
500 to 5000 nM | 500 to 5000 nM | 500 to 5000 nM |  |  |  | CC(C)(O)Cn1ncc(-c2onc(-c3c(F)cccc3Cl)c2C(=O)NC2CCC2)c1C(F)(F)F [Example 43, 3-(2-chloro-6-fluorophenyl)-N-cyclobutyl-5-(1-(2-hydroxy-2-methylpropyl)-5-(trifluoromethyl)-1H-pyrazol-4-yl)isoxazole-4-carboxamide]
500 to 5000 nM | 500 to 5000 nM | 500 to 5000 nM |  |  |  | C[C@@H](O)Cn1ncc(-c2onc(-c3c(F)cccc3Cl)c2C(=O)NC2CC2)c1C(F)(F)F [Example 45, 3-(2-chloro-6-fluorophenyl)-N-cyclopropyl-5-(1-((2R)-2-hydroxypropyl)-5-(trifluoromethyl)-1H-pyrazol-4-yl)isoxazole-4-carboxamide]
50 to 500 nM | 500 to 5000 nM | 50 to 500 nM |  |  |  | C[C@@H](O)Cn1ncc(-c2onc(-c3c(F)cccc3Cl)c2C(=O)NC2CCC2)c1C(F)(F)F [Example 46, 3-(2-chloro-6-fluorophenyl)-N-cyclobutyl-5-(1-((2R)-2-hydroxypropyl)-5-(trifluoromethyl)-1H-pyrazol-4-yl)isoxazole-4-carboxamide]
50 to 500 nM | 50 to 500 nM | 50 to 500 nM |  |  |  | Cc1c(-c2onc(-c3ccccc3Cl)c2C(=O)OC2COC2)cnn1C[C@H](C)O [Example 47, oxetan-3-yl 3-(2-chlorophenyl)-5-{1-[(2S)-2-hydroxypropyl]-5-methyl-1H-pyrazol-4-yl}-1,2-oxazole-4-carboxylate]
 |  |  | 500 to 5000 nM | 500 to 5000 nM | 500 to 5000 nM | C[C@]1(O)C[C@H](n2ncc(-c3onc(-c4ccccc4Cl)c3C(=O)OC3CC3)c2C(F)(F)F)C1 [Example 48, cyclopropyl 3-(2-chlorophenyl)-5-(1-(3-hydroxy-3-methylcyclobutyl)-5-(trifluoromethyl)-1H-pyrazol-4-yl)isoxazole-4-carboxylate]
 |  |  | < 50 nM |  |  | Cc1c(-c2onc(-c3c(F)cccc3Cl)c2C(=O)OC2CC2)cnn1[C@H]1C[C@@](C)(O)C1 [Example 62, cyclopropyl 3-(2-chloro-6-fluorophenyl)-5-{5-methyl-1-[3-hydroxy-3-methylcyclobutyl]-1H-pyrazol-4-yl}-1,2-oxazole-4-carboxylate]
500 to 5000 nM |  | 500 to 5000 nM |  |  |  | COCc1c(-c2c(F)cccc2Cl)noc1-c1cnn([C@H]2C[C@@](C)(O)C2)c1C [Example 70, 3-{4-[3-(2-chloro-6-fluorophenyl)-4-(methoxymethyl)-1,2-oxazol-5-yl]-5-methyl-1H-pyrazol-1-yl}-1-methylcyclobutan-1-ol]
500 to 5000 nM |  | 500 to 5000 nM |  |  |  | COCc1c(-c2c(F)cccc2Cl)noc1-c1cnn([C@H]2C[C@](C)(O)C2)c1C [Example 71, 3-{4-[3-(2-chloro-6-fluorophenyl)-4-(methoxymethyl)-1,2-oxazol-5-yl]-5-methyl-1H-pyrazol-1-yl}-1-methylcyclobutan-1-ol]
